Experimental data from ChEMBL document CHEMBL4052660, “The tobacco cembranoid (1S,2E,4S,7E,11E)-2,7,11-cembratriene-4,6-diol as a novel angiogenesis inhibitory lead for the control of breast malignancies” (Bioorg Med Chem, 2017).
Activity calls are given as the source filed them. The calls are words filed in the database; no cut-off is given here.

How the values were obtained:
Mus musculus = experiment: Antiangiogenic activity in matrigel injected Swiss albino mouse assessed as reduction in hemoglobin content in matrigel plug at 2.5 mg/kg, ip every other day for 20 days by matrigel assay; assay type: functional; set-up: scale not given: the % may be the effect or the level left
[1] = molecular target: Vascular endothelial growth factor receptor 2 (Homo sapiens) (UniProt P35968); experiment: Inhibition of VEGFR2 in human MDA-MB-231 cells assessed as downregulation of phosphorylated paxillin levels at 20 uM by Western blot analysis; assay type: cell-based
Serum [2] = experiment: Drug metabolism in athymic nude mouse serum assessed as dihydroxylated metabolite formation at 40 mg/kg, ip after 2 hrs by ES-MS analysis; assay type: ADME, organism-based; settings: in vivo
[3] = molecular target: Vascular endothelial growth factor receptor 2 (Homo sapiens) (UniProt P35968); experiment: Inhibition of VEGFR2 in human MDA-MB-231 cells assessed as reduction in Akt phosphorylation at 20 to 50 uM by Western blot analysis; assay type: cell-based
[4] = molecular target: Vascular endothelial growth factor receptor 2 (Homo sapiens) (UniProt P35968); experiment: Inhibition of VEGFR2 in human BT474 cells assessed as reduction in PI3K phosphorylation at 20 to 50 uM by Western blot analysis; assay type: cell-based
[5] = molecular target: Vascular endothelial growth factor receptor 2 (Homo sapiens) (UniProt P35968); experiment: Inhibition of VEGFR2 in human BT474 cells assessed as reduction in Akt phosphorylation at 20 to 50 uM by Western blot analysis; assay type: cell-based
[6] = molecular target: Vascular endothelial growth factor receptor 2 (Homo sapiens) (UniProt P35968); experiment: Inhibition of VEGFR2 in human BT474 cells assessed as downregulation of phosphorylated paxillin levels at 50 uM by Western blot analysis; assay type: cell-based
[7] = molecular target: Vascular endothelial growth factor receptor 2 (Homo sapiens) (UniProt P35968); experiment: Inhibition of VEGFR2 in human MDA-MB-231 cells assessed as downregulation of phosphorylated FAK levels at 50 uM by Western blot analysis; assay type: cell-based
[8] = molecular target: Vascular endothelial growth factor receptor 2 (Homo sapiens) (UniProt P35968); experiment: Inhibition of VEGFR2 in human MDA-MB-231 cells assessed as reduction in PI3K phosphorylation at 20 to 50 uM by Western blot analysis; assay type: cell-based
[9] = molecular target: Vascular endothelial growth factor receptor 2 (Homo sapiens) (UniProt P35968); experiment: Inhibition of VEGFR2 in human MDA-MB-231 cells assessed as downregulation of phosphorylated FAK levels at 20 uM by Western blot analysis; assay type: cell-based
[10] = molecular target: Vascular endothelial growth factor receptor 2 (Homo sapiens) (UniProt P35968); experiment: Inhibition of VEGFR2 phosphorylation in human BT474 cells at 20 uM by Western blot analysis; assay type: cell-based
Serum [11] = experiment: Drug uptake in athymic nude mouse serum at 40 mg/kg, ip after 2 hrs by ES-MS analysis; assay type: ADME, organism-based; settings: in vivo
[12] = molecular target: Vascular endothelial growth factor receptor 2 (Homo sapiens) (UniProt P35968); experiment: Inhibition of VEGFR2 in human MDA-MB-231 cells assessed as downregulation of phosphorylated paxillin levels at 50 uM by Western blot analysis; assay type: cell-based
[13] = molecular target: Vascular endothelial growth factor receptor 2 (Homo sapiens) (UniProt P35968); experiment: Inhibition of VEGFR2 phosphorylation in human BT474 cells at 50 uM by Western blot analysis; assay type: cell-based
[14] = molecular target: Vascular endothelial growth factor receptor 2 (Homo sapiens) (UniProt P35968); experiment: Inhibition of VEGFR2 in human BT474 cells assessed as downregulation of phosphorylated paxillin levels at 20 uM by Western blot analysis; assay type: cell-based
[15] = molecular target: Vascular endothelial growth factor receptor 2 (Homo sapiens) (UniProt P35968); experiment: Inhibition of VEGFR2 in human BT474 cells assessed as downregulation of phosphorylated FAK levels at 20 uM by Western blot analysis; assay type: cell-based
[16] = molecular target: Vascular endothelial growth factor receptor 2 (Homo sapiens) (UniProt P35968); experiment: Inhibition of VEGFR2 phosphorylation in human MDA-MB-231 cells at 50 uM by Western blot analysis; assay type: cell-based
[17] = molecular target: Vascular endothelial growth factor receptor 2 (Homo sapiens) (UniProt P35968); experiment: Inhibition of VEGFR2 phosphorylation in human MDA-MB-231 cells at 20 uM by Western blot analysis; assay type: cell-based
[18] = molecular target: Vascular endothelial growth factor receptor 2 (Homo sapiens) (UniProt P35968); experiment: Inhibition of VEGFR2 in human BT474 cells assessed as downregulation of phosphorylated FAK levels at 50 uM by Western blot analysis; assay type: cell-based
Serum [19] = experiment: Drug metabolism in athymic nude mouse serum assessed as monohydroxylated metabolite formation at 40 mg/kg, ip after 2 hrs by ES-MS analysis; assay type: ADME, organism-based; settings: in vivo

Chain of Vascular endothelial growth factor receptor 2 (Homo sapiens) (P35968 whole entry): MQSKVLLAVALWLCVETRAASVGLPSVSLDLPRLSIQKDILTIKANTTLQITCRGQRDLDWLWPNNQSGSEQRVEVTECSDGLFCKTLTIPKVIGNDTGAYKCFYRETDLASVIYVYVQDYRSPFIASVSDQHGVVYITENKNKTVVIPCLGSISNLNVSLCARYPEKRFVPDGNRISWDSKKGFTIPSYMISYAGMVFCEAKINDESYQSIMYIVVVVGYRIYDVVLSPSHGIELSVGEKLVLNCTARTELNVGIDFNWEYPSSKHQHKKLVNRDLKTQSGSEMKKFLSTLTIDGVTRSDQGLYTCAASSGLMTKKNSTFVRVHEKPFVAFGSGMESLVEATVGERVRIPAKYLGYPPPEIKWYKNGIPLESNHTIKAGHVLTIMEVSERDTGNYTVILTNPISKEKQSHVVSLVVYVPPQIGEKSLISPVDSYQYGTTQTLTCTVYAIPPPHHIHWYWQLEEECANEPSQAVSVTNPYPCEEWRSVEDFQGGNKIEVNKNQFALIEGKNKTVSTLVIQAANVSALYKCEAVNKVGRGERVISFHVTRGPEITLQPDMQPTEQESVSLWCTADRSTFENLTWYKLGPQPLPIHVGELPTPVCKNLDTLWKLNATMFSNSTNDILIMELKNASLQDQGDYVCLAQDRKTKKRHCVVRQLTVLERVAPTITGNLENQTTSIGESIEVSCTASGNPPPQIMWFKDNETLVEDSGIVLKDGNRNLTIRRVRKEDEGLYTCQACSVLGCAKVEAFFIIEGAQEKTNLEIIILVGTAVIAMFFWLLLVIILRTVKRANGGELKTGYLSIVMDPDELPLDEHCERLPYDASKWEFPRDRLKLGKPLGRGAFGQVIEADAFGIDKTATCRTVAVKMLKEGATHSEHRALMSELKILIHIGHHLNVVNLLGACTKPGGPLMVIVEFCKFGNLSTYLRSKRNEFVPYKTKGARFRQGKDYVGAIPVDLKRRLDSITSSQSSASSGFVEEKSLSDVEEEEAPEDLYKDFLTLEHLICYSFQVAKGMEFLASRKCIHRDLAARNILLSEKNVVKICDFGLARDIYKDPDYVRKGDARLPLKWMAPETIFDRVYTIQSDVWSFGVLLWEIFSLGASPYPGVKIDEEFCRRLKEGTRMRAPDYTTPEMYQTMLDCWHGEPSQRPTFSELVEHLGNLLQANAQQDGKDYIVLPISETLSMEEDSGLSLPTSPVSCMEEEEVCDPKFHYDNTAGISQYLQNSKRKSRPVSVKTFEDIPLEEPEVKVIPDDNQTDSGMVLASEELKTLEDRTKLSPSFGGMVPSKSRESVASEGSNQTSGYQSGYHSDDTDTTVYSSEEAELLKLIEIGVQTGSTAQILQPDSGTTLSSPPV

inhibition [1]	Drug metabolism (Serum [2])	inhibition [3]	inhibition [4]	inhibition [5]	inhibition [6]	inhibition [7]	inhibition [8]	inhibition [9]	inhibition [10]	Drug uptake (Serum [11])	inhibition [12]	inhibition [13]	inhibition [14]	inhibition [15]	inhibition [16]	inhibition [17]	inhibition [18]	Drug metabolism (Serum [19])	SMILES	Activity (Mus musculus)
–	–	–	–	–	–	–	–	–	–	–	–	–	–	–	–	–	–	–	CCN(CC)CCNC(=O)c1c(C)[nH]c(/C=C2\C(=O)Nc3ccc(F)cc32)c1C [SUNITINIB]	80%
58.7%	Metabolite_Detected	inactive	inactive	inactive	82.1%	41.3%	inactive	26%	43.1%	Active	96.1%	58.6%	70.9%	48.9%	65.3%	60.6%	74.8%	Metabolite_Detected	C/C1=C\[C@H](O)C[C@](C)(O)/C=C/[C@H](C(C)C)CC/C(C)=C/CC1	–
